The text below walks through data of patent publication US7074789B2, “Kinase inhibitors” (Amgen Inc., priority 1999, dated 2006).

What all share (format): biochemical
In experiment [1] the target is T1, Zap-70 (Homo sapiens, UniProt P43403).
T1 construct: Kinases are expressed as either kinase domains or full length constructs; made in house
T1 sequence (P43403 1-619): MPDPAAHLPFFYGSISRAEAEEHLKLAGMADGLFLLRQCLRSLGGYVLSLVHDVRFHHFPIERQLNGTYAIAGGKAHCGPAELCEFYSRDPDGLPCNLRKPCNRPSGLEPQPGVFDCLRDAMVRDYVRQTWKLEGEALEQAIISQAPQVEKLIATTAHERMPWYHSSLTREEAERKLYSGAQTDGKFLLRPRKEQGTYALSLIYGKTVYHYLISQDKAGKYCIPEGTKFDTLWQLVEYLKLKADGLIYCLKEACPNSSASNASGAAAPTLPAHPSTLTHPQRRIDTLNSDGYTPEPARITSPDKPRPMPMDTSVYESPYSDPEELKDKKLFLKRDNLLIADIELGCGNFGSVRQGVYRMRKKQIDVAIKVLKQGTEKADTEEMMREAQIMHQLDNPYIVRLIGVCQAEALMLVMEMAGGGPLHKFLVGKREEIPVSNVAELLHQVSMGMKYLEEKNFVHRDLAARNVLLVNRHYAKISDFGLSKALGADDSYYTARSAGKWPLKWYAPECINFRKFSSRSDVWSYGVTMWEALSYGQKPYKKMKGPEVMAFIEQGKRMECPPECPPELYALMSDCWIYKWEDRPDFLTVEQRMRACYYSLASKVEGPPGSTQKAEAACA
In words: Kinase inhibition assay (33P transfer), Zap-70. The following applies: Table 3; read-out: Zap-1. The procedure, abridged: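 Filterless plate radiometric format: immobilized poly(Glu,Tyr) 4:1 or poly(Arg,Ser) 3:1, 33P-labelled ATP, tagged recombinant kinase (some with regulatory partners). Incorporated label counted after phosphoric acid wash.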

Experiment [2] deals with T2, ErbB4 (Homo sapiens, UniProt Q15303).
T2 construct: Kinases are expressed as either kinase domains or full length constructs; made in house
T2 sequence (Q15303 26-1308, species assumed): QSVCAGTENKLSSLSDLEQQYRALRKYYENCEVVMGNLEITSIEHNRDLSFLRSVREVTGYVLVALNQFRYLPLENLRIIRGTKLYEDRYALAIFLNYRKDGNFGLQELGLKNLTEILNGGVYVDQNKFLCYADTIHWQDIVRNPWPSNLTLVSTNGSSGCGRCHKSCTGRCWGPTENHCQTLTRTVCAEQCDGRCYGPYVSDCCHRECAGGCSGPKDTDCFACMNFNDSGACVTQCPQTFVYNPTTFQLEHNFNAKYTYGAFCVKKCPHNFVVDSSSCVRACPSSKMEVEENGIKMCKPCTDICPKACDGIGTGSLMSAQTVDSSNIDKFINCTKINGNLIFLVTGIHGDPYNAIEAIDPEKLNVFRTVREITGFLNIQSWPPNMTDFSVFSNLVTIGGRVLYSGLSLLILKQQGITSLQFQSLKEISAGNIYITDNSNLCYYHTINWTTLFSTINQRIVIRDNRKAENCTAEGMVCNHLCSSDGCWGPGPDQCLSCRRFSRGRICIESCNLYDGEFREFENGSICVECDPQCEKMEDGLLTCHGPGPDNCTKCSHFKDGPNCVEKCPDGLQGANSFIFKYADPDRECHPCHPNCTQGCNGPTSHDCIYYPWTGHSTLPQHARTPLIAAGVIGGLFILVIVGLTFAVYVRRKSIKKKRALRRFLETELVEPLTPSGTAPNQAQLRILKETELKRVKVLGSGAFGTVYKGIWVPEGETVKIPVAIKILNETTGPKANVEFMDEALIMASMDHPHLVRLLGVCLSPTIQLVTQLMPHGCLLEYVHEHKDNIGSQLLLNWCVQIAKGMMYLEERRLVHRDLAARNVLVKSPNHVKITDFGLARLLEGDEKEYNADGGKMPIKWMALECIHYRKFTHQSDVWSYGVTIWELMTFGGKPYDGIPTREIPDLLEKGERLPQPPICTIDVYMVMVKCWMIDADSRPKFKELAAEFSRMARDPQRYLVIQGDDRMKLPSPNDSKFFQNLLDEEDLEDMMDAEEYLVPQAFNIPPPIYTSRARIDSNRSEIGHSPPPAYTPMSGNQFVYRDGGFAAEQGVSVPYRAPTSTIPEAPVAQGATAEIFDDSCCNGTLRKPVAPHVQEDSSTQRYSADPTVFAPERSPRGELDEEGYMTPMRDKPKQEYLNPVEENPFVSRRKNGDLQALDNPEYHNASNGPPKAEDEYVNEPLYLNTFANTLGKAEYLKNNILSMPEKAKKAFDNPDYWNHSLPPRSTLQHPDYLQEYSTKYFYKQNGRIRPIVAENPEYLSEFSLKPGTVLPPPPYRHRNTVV
In words: Kinase inhibition assay (33P transfer), ErbB4. Conditions: read-out: ErbB4-1.

Experiment [3] addresses T3, Lyn (Homo sapiens, UniProt P07948).
T3 construct: Kinases are expressed as either kinase domains or full length constructs; made in house
Nature of the experiment: Kinase inhibition assay (33P transfer), Lyn. The following applies: Table 6, Lyn-1 kinase inhibition class. The procedure, abridged: (§1)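 Kinase domains or full-length enzymes, GST- or polyHis-tagged, were expressed in E. coli or baculovirus High Five cells and affinity-purified. Transfer of 33PO4 from ATP onto plate-bound poly(Glu,Tyr) 4:1 or poly(Arg,Ser) 3:1 was counted by liquid scintillation after a 0.5% phosphoric acid wash. IC50 = concentration halving incorporation.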

For experiment [4], the target named is T4, Tek (Homo sapiens, UniProt Q02763).
T4 construct: Kinases are expressed as either kinase domains or full length constructs; made in house
T4 sequence (Q02763 23-1124, species assumed): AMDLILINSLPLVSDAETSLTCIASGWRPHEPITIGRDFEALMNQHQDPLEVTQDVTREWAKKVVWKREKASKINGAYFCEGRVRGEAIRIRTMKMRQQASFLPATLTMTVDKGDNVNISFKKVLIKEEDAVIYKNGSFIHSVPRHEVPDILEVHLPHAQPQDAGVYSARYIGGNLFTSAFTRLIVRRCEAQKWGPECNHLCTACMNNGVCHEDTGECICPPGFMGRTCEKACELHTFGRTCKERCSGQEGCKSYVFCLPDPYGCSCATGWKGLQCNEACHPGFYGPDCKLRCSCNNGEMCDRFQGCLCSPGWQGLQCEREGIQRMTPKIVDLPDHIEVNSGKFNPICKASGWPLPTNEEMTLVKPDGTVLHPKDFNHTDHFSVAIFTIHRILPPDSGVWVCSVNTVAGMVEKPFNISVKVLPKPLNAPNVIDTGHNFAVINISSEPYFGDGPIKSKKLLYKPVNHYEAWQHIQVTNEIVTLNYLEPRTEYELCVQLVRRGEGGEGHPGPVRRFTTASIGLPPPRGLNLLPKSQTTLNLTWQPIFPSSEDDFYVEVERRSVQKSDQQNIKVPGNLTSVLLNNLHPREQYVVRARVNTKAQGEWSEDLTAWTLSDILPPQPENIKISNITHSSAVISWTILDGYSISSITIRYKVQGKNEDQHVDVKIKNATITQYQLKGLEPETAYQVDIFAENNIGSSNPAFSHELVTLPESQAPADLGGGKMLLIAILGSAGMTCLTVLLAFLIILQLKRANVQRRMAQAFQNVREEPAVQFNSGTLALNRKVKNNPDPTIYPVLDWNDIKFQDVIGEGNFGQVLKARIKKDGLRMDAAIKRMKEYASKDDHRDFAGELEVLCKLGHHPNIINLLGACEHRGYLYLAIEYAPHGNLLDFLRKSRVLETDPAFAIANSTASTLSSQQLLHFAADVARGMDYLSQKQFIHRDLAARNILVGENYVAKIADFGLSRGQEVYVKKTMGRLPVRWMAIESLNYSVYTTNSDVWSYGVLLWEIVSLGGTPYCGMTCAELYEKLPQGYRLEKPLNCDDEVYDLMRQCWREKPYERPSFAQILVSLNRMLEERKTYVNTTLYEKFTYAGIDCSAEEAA
In words: Kinase inhibition assay (33P transfer), Tek. The following applies: read-out: Tek-1. The procedure, abridged: as §1

Experiment [5] concerns the target T5, EPHB4 (Homo sapiens, UniProt P54760).
T5 construct: Kinases are expressed as either kinase domains or full length constructs; made in house
T5 sequence (P54760 16-987): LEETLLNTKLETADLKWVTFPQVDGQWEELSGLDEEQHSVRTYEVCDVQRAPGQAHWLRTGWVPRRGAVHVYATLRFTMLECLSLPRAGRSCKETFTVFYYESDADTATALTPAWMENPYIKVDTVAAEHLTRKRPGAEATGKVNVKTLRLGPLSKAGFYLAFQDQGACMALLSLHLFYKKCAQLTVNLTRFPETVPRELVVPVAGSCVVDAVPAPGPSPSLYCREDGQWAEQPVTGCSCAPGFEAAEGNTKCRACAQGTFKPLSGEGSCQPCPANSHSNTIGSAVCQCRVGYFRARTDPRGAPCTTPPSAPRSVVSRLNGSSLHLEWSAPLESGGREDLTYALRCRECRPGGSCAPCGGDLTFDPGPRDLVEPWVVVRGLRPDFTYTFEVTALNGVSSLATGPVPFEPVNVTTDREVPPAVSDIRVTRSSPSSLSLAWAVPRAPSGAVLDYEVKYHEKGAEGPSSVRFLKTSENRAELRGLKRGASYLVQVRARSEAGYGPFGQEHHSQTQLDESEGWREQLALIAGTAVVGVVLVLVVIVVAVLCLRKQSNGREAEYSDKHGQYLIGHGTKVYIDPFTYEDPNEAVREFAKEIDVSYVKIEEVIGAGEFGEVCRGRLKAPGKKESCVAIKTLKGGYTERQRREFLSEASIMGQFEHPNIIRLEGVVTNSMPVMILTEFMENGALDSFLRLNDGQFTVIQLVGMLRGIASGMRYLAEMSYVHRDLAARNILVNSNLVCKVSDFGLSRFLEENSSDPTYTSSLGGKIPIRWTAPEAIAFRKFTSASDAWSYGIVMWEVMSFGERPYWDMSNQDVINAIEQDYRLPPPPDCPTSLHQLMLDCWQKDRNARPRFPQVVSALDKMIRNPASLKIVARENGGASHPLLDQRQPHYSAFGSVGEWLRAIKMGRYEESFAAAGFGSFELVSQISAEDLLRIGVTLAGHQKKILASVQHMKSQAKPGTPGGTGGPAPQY
In words: Kinase inhibition assay (33P transfer), EPHB4. The following applies: read-out: EPHB4-1.

Experiment [6] concerns the target T6, PDGFRB (Homo sapiens, UniProt P09619).
T6 construct: Kinases are expressed as either kinase domains or full length constructs; made in house
Nature of the experiment: Kinase inhibition assay (33P transfer), PDGFRB. Conditions: read-out: PDGFRB-1.

For experiment [7], the target named is T7, ErbB2 (Homo sapiens, UniProt P04626).
T7 construct: Kinases are expressed as either kinase domains or full length constructs; made in house
In words: Kinase inhibition assay (33P transfer), ErbB2. The following applies: read-out: ErbB2-2. Summed up:
as §1

T3 sequence (P07948 whole entry, species assumed, the tested form may be a part): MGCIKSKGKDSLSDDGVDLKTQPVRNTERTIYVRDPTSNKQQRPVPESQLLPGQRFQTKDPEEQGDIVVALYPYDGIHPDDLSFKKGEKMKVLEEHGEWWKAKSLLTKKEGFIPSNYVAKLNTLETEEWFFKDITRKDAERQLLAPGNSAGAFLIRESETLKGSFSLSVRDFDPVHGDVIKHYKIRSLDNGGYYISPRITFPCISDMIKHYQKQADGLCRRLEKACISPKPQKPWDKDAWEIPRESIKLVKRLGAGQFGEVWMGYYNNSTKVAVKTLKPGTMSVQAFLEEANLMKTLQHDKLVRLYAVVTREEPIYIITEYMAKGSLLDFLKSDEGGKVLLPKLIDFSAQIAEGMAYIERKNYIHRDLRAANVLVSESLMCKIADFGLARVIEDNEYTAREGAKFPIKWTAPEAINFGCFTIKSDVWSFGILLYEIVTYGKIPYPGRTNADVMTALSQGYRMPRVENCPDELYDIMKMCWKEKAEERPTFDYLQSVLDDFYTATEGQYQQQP
T6 sequence (P09619 33-1106, species assumed): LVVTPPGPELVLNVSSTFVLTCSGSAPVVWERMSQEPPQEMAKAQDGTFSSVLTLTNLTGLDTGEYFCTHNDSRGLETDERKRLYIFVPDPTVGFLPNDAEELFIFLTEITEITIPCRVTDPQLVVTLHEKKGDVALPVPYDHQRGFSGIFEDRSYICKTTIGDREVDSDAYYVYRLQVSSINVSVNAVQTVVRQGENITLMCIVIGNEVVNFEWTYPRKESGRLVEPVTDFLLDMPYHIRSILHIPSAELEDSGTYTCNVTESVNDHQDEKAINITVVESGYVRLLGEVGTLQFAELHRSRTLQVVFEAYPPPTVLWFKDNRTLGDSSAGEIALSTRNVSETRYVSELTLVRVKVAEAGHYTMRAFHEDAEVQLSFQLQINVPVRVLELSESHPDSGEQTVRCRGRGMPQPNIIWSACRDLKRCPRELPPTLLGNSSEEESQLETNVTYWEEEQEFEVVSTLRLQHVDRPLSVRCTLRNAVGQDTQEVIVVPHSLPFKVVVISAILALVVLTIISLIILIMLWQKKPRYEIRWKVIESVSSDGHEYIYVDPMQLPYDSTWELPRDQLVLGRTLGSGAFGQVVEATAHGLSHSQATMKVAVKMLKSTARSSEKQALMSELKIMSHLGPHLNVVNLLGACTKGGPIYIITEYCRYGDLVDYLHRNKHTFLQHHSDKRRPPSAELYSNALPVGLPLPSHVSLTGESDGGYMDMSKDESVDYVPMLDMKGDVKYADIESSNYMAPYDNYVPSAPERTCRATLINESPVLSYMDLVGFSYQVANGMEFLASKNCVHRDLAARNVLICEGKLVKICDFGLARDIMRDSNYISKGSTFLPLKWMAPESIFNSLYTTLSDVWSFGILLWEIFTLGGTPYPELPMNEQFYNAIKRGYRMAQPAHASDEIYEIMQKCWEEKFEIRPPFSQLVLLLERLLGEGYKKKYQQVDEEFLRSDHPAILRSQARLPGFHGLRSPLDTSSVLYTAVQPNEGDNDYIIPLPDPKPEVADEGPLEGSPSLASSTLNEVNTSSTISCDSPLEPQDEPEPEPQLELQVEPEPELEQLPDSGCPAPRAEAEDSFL

As for `C#Cc1cccc(Nc2ncnc(Nc3cc(OC)c(OC)c(OC)c3)n2)c1` [Compound 74], the IC50 in experiment [1] was above 11.9 µM; in experiment [2] it was above 11.9 µM; in experiment [3], below 1.06 µM; in experiment [4], above 11.9 µM; in experiment [5] it was below 1.06 µM.

Take `COc1cc(Nc2ncnc(Nc3cc(OC)c(OC)c(OC)c3)n2)cc(OC)c1OC` [Compound 76]: the IC50 is above 10.1 µM in experiment [1], 0.902 to 5.41 µM in experiment [3], above 10.1 µM in experiment [4] and 0.902 to 5.41 µM in experiment [5].

With `COc1cc(Nc2ncnc(Nc3cc(C)[nH]n3)n2)cc(OC)c1OC` [Compound 88], the IC50 in experiment [1] is above 12.6 µM; in experiment [3], 1.12 to 6.72 µM; in experiment [4], above 12.6 µM; in experiment [5] it was 1.12 to 6.72 µM.

Turning to `COc1cc(Nc2ncnc(Nc3ccc4c(c3)Cc3ccccc3-4)n2)cc(OC)c1OC` [Compound 95], the IC50 in experiment [1] is 7.93 to 10.2 µM; in experiment [3], 5.44 to 7.93 µM; in experiment [4] it was above 10.2 µM; in experiment [5] it was 7.93 to 10.2 µM.

`COc1cc(Nc2ncnc(Nc3ccc(N4CCOCC4)cc3)n2)cc(OC)c1OC` [Compound 101]: the IC50 was above 10.3 µM in experiment [1], 5.47 to 7.98 µM in experiment [3], 7.98 to 10.3 µM in experiment [4] and above 10.3 µM in experiment [5].

For the compound `COc1cc(Nc2ncnc(-c3ccnc(NCCCO)c3)n2)cc(OC)c1OC` [Compound 180], the IC50 is above 10.9 µM in experiment [1]; above 10.9 µM in experiment [2]; 0.97 to 5.82 µM in experiment [3]; above 10.9 µM in experiment [4]; above 10.9 µM in experiment [5].

As to `COc1cccc(-c2ncnc(Nc3cc(OC)c(OC)c(OC)c3)n2)c1` [Compound 232], the IC50 in experiment [1], in experiment [3], in experiment [4] and in experiment [5] was above 12.2 µM in each case.

For the compound `COc1cc(Nc2ncnc(Nc3cc(-c4ccco4)n[nH]3)n2)cc(OC)c1` [Compound 365], the IC50 was 1.05 to 6.33 µM in experiment [1]; 6.33 to 9.23 µM in experiment [2]; below 1.05 µM in experiment [3]; above 11.9 µM in experiment [4]; 1.05 to 6.33 µM in experiment [5].

As for `COc1cc(Nc2ncnc(Nc3cc(-c4ccc(Cl)cc4)n[nH]3)n2)cc(OC)c1OC` [Compound 367], the IC50 is above 9.91 µM in experiment [1]; above 9.91 µM in experiment [2]; 0.881 to 5.29 µM in experiment [3]; 7.71 to 9.91 µM in experiment [4]; 0.881 to 5.29 µM in experiment [5].

Consider `COc1cc(Nc2ncnc(N(c3ccc(Cl)cc3)c3nc4ccccc4[nH]3)n2)cc(OC)c1OC` [Compound 374], for which the IC50 in experiment [1] is above 8.93 µM; in experiment [2] it was 0.794 to 4.76 µM; in experiment [3] it was below 0.794 µM; in experiment [4], 0.794 to 4.76 µM; in experiment [5], below 0.794 µM.

With `COc1cc(Nc2ncnc(-n3c(Nc4cccc(C(N)=O)c4)nc4ccccc43)n2)cc(OC)c1OC` [Compound 377], the IC50 is 0.78 to 4.68 µM in experiment [1]; above 8.78 µM in experiment [2]; above 8.78 µM in experiment [3]; 6.83 to 8.78 µM in experiment [4]; 0.78 to 4.68 µM in experiment [5].

Take `COc1cc(Nc2ncnc(-n3c(Cl)nc4ccccc43)n2)cc(OC)c1OC` [Compound 378]: the IC50 was above 10.9 µM in experiment [1]; above 10.9 µM in experiment [2]; 0.969 to 5.81 µM in experiment [3]; 8.48 to 10.9 µM in experiment [4]; above 10.9 µM in experiment [5].

On to `COc1cc(Nc2ncnc(-c3c(O)[nH]c4ccccc34)n2)cc(OC)c1OC` [Compound 380], for which the IC50 in experiment [1] is above 11.4 µM; in experiment [2], 1.02 to 6.1 µM; in experiment [3], 1.02 to 6.1 µM; in experiment [4], above 11.4 µM; in experiment [5] it was above 11.4 µM.

As to `COC(=O)c1cccc(Nc2nc3ccccc3n2-c2ncnc(Nc3cc(OC)c(OC)c(OC)c3)n2)c1` [Compound 383], the IC50 is below 0.758 µM in experiment [6]; above 8.53 µM in experiment [1]; 4.55 to 6.63 µM in experiment [7]; 4.55 to 6.63 µM in experiment [4]; above 8.53 µM in experiment [5].

For the compound `COc1cc(Nc2ncnc(-n3c(Nc4ccccc4C)nc4ccccc43)n2)cc(OC)c1OC` [Compound 384], the IC50 in experiment [1] is above 9.31 µM; in experiment [2], above 9.31 µM; in experiment [3], below 0.827 µM; in experiment [4] it was above 9.31 µM; in experiment [5] it was 0.827 to 4.96 µM.

With `COc1cc(Nc2ncnc(-n3c(Nc4ccc(C)cc4)nc4ccccc43)n2)cc(OC)c1OC` [Compound 385], the IC50 is above 9.31 µM in experiment [1]; above 9.31 µM in experiment [2]; 0.827 to 4.96 µM in experiment [3]; above 9.31 µM in experiment [4]; above 9.31 µM in experiment [5].

`COc1cc(Nc2ncnc(-n3c(Nc4cccc(C)c4)nc4ccccc43)n2)cc(OC)c1OC` [Compound 386]: the IC50 in experiment [1], in experiment [2], in experiment [3], in experiment [4] and in experiment [5] was above 9.31 µM throughout.

On to `COc1cc(Nc2ncnc(-n3c(Nc4ccc(F)cc4)nc4ccccc43)n2)cc(OC)c1OC` [Compound 387], for which the IC50 in experiment [1] is above 9.23 µM; in experiment [2], above 9.23 µM; in experiment [3], 0.821 to 4.92 µM; in experiment [4], above 9.23 µM; in experiment [5], above 9.23 µM.

In the case of `COc1cc(Nc2ncnc(-n3c(Nc4ccc(C(C)C)cc4)nc4ccccc43)n2)cc(OC)c1OC` [Compound 388], the IC50 was above 8.8 µM in experiment [1]; above 8.8 µM in experiment [2]; 0.782 to 4.69 µM in experiment [3]; above 8.8 µM in experiment [4]; above 8.8 µM in experiment [5].

`COc1cc(Nc2ncnc(-n3c(Nc4cccc(C(=O)O)c4)nc4ccccc43)n2)cc(OC)c1OC` [Compound 390]: the IC50 is above 8.76 µM in experiment [1]; 6.82 to 8.76 µM in experiment [2]; 0.779 to 4.67 µM in experiment [3]; 4.67 to 6.82 µM in experiment [4]; above 8.76 µM in experiment [5].

Consider `COc1cc(Nc2ncnc(Nc3cc(-c4ccccc4)nn3C)n2)cc(OC)c1OC` [Compound 394], for which the IC50 in experiment [1] is above 10.4 µM; in experiment [2], above 10.4 µM; in experiment [3], below 0.923 µM; in experiment [4], above 10.4 µM; in experiment [5], 5.54 to 8.07 µM.

As for `NC(=O)c1cccc(Nc2ncnc(-n3c(N)nc4ccccc43)n2)c1` [Compound 395], the IC50 in experiment [1] was above 13 µM; in experiment [2], above 13 µM; in experiment [3], 10.1 to 13 µM; in experiment [4], 1.15 to 6.93 µM; in experiment [5], above 13 µM.

As to `NC(=O)c1ccc(Nc2ncnc(-n3c(N)nc4ccccc43)n2)cc1` [Compound 396], the IC50 was above 13 µM in experiment [1]; 1.15 to 6.93 µM in experiment [2]; 1.15 to 6.93 µM in experiment [3]; 1.15 to 6.93 µM in experiment [4]; 1.15 to 6.93 µM in experiment [5].
